In patent publication US20130156708A1, “PHENOL DERIVATIVES AS ANTIMICROBIAL AGENTS” (Symrise AG, priority 2011, published 2013):
≈ marks a conversion by molar mass, not a printed value.

Experiments:
E. coli [1] = test: Synergistic activity (Kull) in fast time-kill experiments, E. coli; format: cell-based, Escherichia coli
Protocol: (§1) This protocol gives an exact description on how to perform a fast time-kill experiment. Fast time-kill experiments serve to determine the antimicrobial kill activity of a specific substance or substance mixture against a particular microorganism or a mixture of microorganisms.
(§2) Microorganisms are grown in suitable growth medium allowing for exponential growth. For E. coli, Salmonella spp., S. aureus, P. aeruginosa, and for C. albicans tryptic soy broth medium is used. One hundred ml Erlenmeyer flasks containing 20 ml growth medium are inoculated with 10^5 to 10^8 microbial cells/ml and incubated overnight under continuous shaking (120 rpm) at a temperature allowing for exponential growth, usually between 20 and 37° C. The temperature is chosen in such a way to ensure the exponential growth for the used microorganisms, for E. coli, Salmonella spp., S. aureus, P. aeruginosa, and for C. albicans 37° C. is used.
(§3) After reaching the stationary growth phase, 100 μl of this culture are transferred in a second Erlenmeyer flask containing 20 ml of the same growth medium. This culture is shaken for further (preferably to up to 7 hours) under identical conditions as described above. Subsequently, this culture is diluted in the same growth medium to 10^5 to 10^9, preferably to 10^6 to 10^8 cells/ml. With this suspension of microorganism (named “microorganism working suspension”) the time-kill test is performed.
(§4) Test substances are dissolved in DMSO, EtOH and/or H2O, preferably in H2O, to prepare a 100× concentrated stock solution. In case the test substance is not completely soluble in H2O, the solvents are chosen in to ensure a complete dissolution of the test substance, the chosen concentration of DMSO and EtOH being as low as possible. For solid substances, complete dissolution has to be ensured. […] Preferably, the concentrations of the test substances in the 100× concentrated stock solution are between 1 and 100%, corresponding to 0.01 to 1% in the final test. The amount of the 100× concentrated stock solution in the final test should not exceed 1% in order to limit the concentration of DMSO or EtOH to 1% in the final test.
(§5) Fast time-kill tests are performed in 1000 μl volumes in 1.5 ml plastic reaction tubes (Eppendorf). The test is started by mixing (in this particular order) 100 μl microorganism working suspension with 890 μl tryptic soy broth growth medium containing 0.1% Tween® 80 and 10 μl 100× concentrated stock solution of test substances. Controls are included that are prepared as described above, but using 100× stock solution without test substances. During the test, tubes are incubated at the same temperature as the microorganisms were grown, usually 20 to 37° C. (for E. coli, Salmonella spp., S. aureus, P. aeruginosa, and for C. albicans 37° C. is used) in an Eppendorf Thermomixer and are vigorously shaken at 1400 rpm.
(§6) Samples are taken from reaction tubes after defined time intervals (preferably 1, 2 and 5 min) to determine the number of surviving microorganisms. At time 0 (immediately after starting the test) samples are taken from control tubes to determine the initial number of microorganisms in the test. The number of surviving microorganisms is determined by aspiring 100 μl volumes from reaction tubes and mixing it immediately with 900 μl growth medium to prepare a 10^−1 dilution. Further dilutions are prepared in this way from 10^−2 to 10^−4. One hundred μl volumes of the different dilutions are plated on tryptic soy broth agar plates and incubated for up to 48 h at the same temperature as the microorganisms were grown, usually 20 to 37° C. (for E. coli, Salmonella spp., S. aureus, P. aeruginosa, and for C. albicans 37° C. is used). Colonies grown on plates are counted and the numbers of surviving microorganisms are calculated for the different treatments and time points. For substances with low minimum inhibitory concentrations (MIC), sufficient dilution below the concentration of the MIC value has to be ensured.

S. aureus [2] = test: Synergistic activity (Kull) in fast time-kill experiments, S. aureus; format: cell-based, Staphylococcus aureus
Protocol: as §1, §2, §3, §4, §5, §6

E. coli [3] = test: Fast time-kill test, inactivation time for 99.9% kill, E. coli; format: cell-based; settings: Escherichia coli; 0.1% concentration; averages of four independent experiments
Protocol: as §1, with “microorganisms. To kill (synonymous: to inactivate) a microorganism means that after the treatment, the microorganism has permanently lost its capacity to grow or to replicate.” for “microorganisms.”
as §2, §3
(§7) Test substances are dissolved in DMSO, EtOH and/or H2O, preferably in H2O, to prepare a 100× concentrated stock solution. […]
(§8) Samples are taken from reaction tubes after defined time intervals (preferably 1, 2 and 5 min) to determine the number of surviving microorganisms. […] The number of surviving microorganisms is determined by aspiring 100 μl volumes from reaction tubes and mixing it immediately with 900 μl growth medium to prepare a 10^−1 dilution. […]

S. aureus [4] = test: Fast time-kill test, inactivation time for 99.9% kill, S. aureus; format: cell-based; settings: Staphylococcus aureus; 0.1% concentration; averages of four independent experiments
Protocol: as §1, with “microorganisms. To kill (synonymous: to inactivate) a microorganism means that after the treatment, the microorganism has permanently lost its capacity to grow or to replicate.” for “microorganisms.”
as §2, §3, §7, §8

C. albicans [5] = test: Fast time-kill test, inactivation time for 99.9% kill, C. albicans; format: cell-based, Candida albicans; settings: Candiada albicans; 0.1% concentration; averages of four independent experiments
Protocol: as §1, with “microorganisms. To kill (synonymous: to inactivate) a microorganism means that after the treatment, the microorganism has permanently lost its capacity to grow or to replicate.” for “microorganisms.”
as §2, §3, §7, §8

E. coli [6] = test: Minimum inhibitory concentration, E. coli; format: cell-based, Escherichia coli; settings: for MIC: Escherichia coli
Text: (§9) Assessment of minimum inhibitory concentrations of thymol and 4-prenylphenol against versus microorganisms relevant for home and personal care:
(§10) The results of comparative assessment of minimum inhibitor concentration for both thymol and 4-prenylphenol are listed in Table 2.

S. aureus [7] = test: Minimum inhibitory concentration, S. aureus; format: cell-based, Staphylococcus aureus; settings: for MIC: Staphylococcus aureus
Text: as §9, §10

C. albicans [8] = test: Minimum inhibitory concentration, C. albicans; format: cell-based, Candida albicans; settings: for MIC: Candida albicans
Text: as §9, §10

Aspergillus niger = test: Minimum inhibitory concentration, A. niger; format: cell-based; settings: for MIC: Aspergillus niger
[9] = system: microorganisms relevant for home and personal care; test: Minimum inhibitory concentration, further microorganisms of Table 2; format: cell-based
Text: as §9, §10

[10] = Taste test in alcohol free mouth wash formulation; settings: compound 0.1%, peppermint Optamint Flavor 0.15%, versus sample without compound
Text: The compounds of formulae (IIa) and (IIIa) were further tested in oral care formulations. In particular, an alcohol free mouth wash formulation in combination with a standard peppermint flavor (Optamint® Flavor, dosage 0.15%) plus compound of formula (IIa) or (IIIa), respectively, (dosage 0.1%) was compared with a sample without any compound of formula (I), but being otherwise identically composed. The taste impressions of the samples including the respective compound of formula (IIa) or (IIIa) are described as follows: […]

[11] = Taste test in silica toothpaste formulation; settings: compound 0.1%, spearmint Optamint Flavor 1%, versus sample without compound
Text: A silica toothpaste formulation in combination with a standard spearmint flavour (Optamint® Flavor, dosage 1%) plus the respective compound of formula (IIa) or (IIb) dosage 0.1% was compared to a sample without such compound of formula (I). The taste impressions of the sample including the compound of formula (IIa) or (IIb), respectively, are described as follows: […]

[12] = system: E. coli, S. aureus and C. albicans; test: Fast time-kill test, statements of the text over all investigated microorganisms; format: cell-based; settings: 0.1% concentration, span over E. coli, averages of four independent experiments
Protocol: as §1, with “microorganisms. To kill (synonymous: to inactivate) a microorganism means that after the treatment, the microorganism has permanently lost its capacity to grow or to replicate.” for “microorganisms.”
as §2, with “The temperature is chosen in such a way to ensure the exponential growth for the used microorganisms, for E. coli, Salmonella spp., S. aureus, P. aeruginosa, and for C. albicans 37° C. is used.” left out
as §8

Row | Structure (SMILES) | Inactivation time for 99.9% kill (E. coli [3]) [min] | Inactivation time for 99.9% kill (S. aureus [4]) [min] | Inactivation time for 99.9% kill (C. albicans [5]) [min] | MIC (E. coli [6]) [µg/mL] | MIC (S. aureus [7]) [µg/mL] | MIC (C. albicans [8]) [µg/mL] | MIC (Aspergillus niger) [µg/mL] | MIC ([9]; Corynebacterium xerosis) [µg/mL] | MIC ([9]; Fusobacterium nucleatum) [µg/mL] | MIC ([9]; Malassezia furfur) [µg/mL] | MIC ([9]; Porphyromonas gingivalis) [µg/mL] | MIC ([9]; Pseudomonas aeruginosa) [µg/mL] | MIC ([9]; Salmonalla enteritidis) [µg/mL] | MIC ([9]; Staphylococcus epidermidis) [µg/mL] | MIC ([9]; Streptococcus mutans) [µg/mL] | numbing/tingling feeling on the tongue [10] | numbing/tingling feeling on the tongue [11] | other results
1 | COC(=O)c1ccc(O)cc1 [Methylparaben, reference compound] | – | – | – | – | – | – | – | – | – | – | – | – | – | – | – | – | – | Inactivation rate k (E. coli [1]; Methylparaben 2500 ppm): 0.09 min⁻¹; Inactivation time T99.9% (E. coli [1]; Methylparaben 2500 ppm): 89.1 min; Reduction of surviving microorganisms (E. coli [1]; Methylparaben 2500 ppm): 0.91; Inactivation rate k (S. aureus [2]; Methylparaben 5000 ppm): 0.40 min⁻¹; Inactivation time T99.9% (S. aureus [2]; Methylparaben 5000 ppm): 18.1 min; Reduction of surviving microorganisms (S. aureus [2]; Methylparaben 5000 ppm): 0.67
2 | CC(C)=CCc1ccc(O)cc1 [IIa, 4-(3-Methylbut-2-enyl)phenol] | 1.3 | 1.2 | 1.4 | 125 (≈ 771 µM) | 125 (≈ 771 µM) | 125 (≈ 771 µM) | 64 (≈ 394 µM) | 125 (≈ 771 µM) | 64 (≈ 394 µM) | 1000 (≈ 6160 µM) | 64 (≈ 394 µM) | > 1000 | 125 (≈ 771 µM) | 125 (≈ 771 µM) | 125 (≈ 771 µM) | clearly leaves a numbing/tingling feeling on the tongue | clearly leaves a numbing/tingling feeling on the tongue | minimum inhibitory concentration compared with Thymol (E. coli [6]; E. coli): equal to the one of Thymol; minimum inhibitory concentration compared with Thymol (S. aureus [7]; S. aureus): equal to the one of Thymol; minimum inhibitory concentration compared with Thymol (C. albicans [8]; C. albicans): a factor of two lower; antimicrobial activity against the mould A. niger (Aspergillus niger): strong antimicrobial activity; Inactivation rate k (E. coli [1]; 4-Prenylphenol 250 ppm): 0.94 min⁻¹; Inactivation time T99.9% (E. coli [1]; 4-Prenylphenol 250 ppm): 7.4 min; Reduction of surviving microorganisms (E. coli [1]; 4-Prenylphenol 250 ppm): 0.39; Inactivation rate k (S. aureus [2]; 4-Prenylphenol 400 ppm): 1.2 min⁻¹; Inactivation time T99.9% (S. aureus [2]; 4-Prenylphenol 400 ppm): 5.6 min; Reduction of surviving microorganisms (S. aureus [2]; 4-Prenylphenol 400 ppm): 0.29
3 | Oc1cc(Cl)ccc1Oc1ccc(Cl)cc1Cl [Triclosan] | >100 | >100 | >100 | – | – | – | – | – | – | – | – | – | – | – | – | – | – | Inactivation time for a 99.9% kill [12]: > 100 min
4 | Cc1ccc(C(C)C)c(O)c1 [Thymol, reference compound] | 4.1 | 4.9 | 8.7 | 125 (≈ 832 µM) | 125 (≈ 832 µM) | 250 (≈ 1660 µM) | 1000 (≈ 6660 µM) | 125 (≈ 832 µM) | 125 (≈ 832 µM) | 1000 (≈ 6660 µM) | 125 (≈ 832 µM) | 1000 (≈ 6660 µM) | 250 (≈ 1660 µM) | 250 (≈ 1660 µM) | 250 (≈ 1660 µM) | – | – | –
5 | C=C(C)CCc1ccc(O)cc1 [IIb, 4-(3-Methylbut-3-enyl)phenol] | – | – | – | – | – | – | – | – | – | – | – | – | – | – | – | – | clearly leaves a numbing/tingling feeling on the tongue | –
6 | CC(C)=CCc1ccccc1O [IIIa, 2-(3-Methylbut-2-enyl)phenol] | – | – | – | – | – | – | – | – | – | – | – | – | – | – | – | clearly leaves a numbing/tingling feeling on the tongue | – | –
